The target in this experiment is Human PDE9 (PDE9A2) (Homo sapiens (Human), UniProt O76083). The experiment can be described thus: PDE9 IMAP fluorescence polarization (FP) inhibition assay. The class given is biochemical. Conditions: apparent inhibition constant; human PDE9A2, FAM-cGMP substrate 50 nM, room temperature. The protocol: The activity of the compounds in accordance with the present invention as PDE9 inhibitors may be readily determined without undue experimentation using a fluorescence polarization (FP) methodology that is well known in the art (Huang, W., et al., J. Biomol Screen, 2002, 7:215).
Chain of Human PDE9 (PDE9A2) (O76083 other isoform, or with tags, fused parts or gaps): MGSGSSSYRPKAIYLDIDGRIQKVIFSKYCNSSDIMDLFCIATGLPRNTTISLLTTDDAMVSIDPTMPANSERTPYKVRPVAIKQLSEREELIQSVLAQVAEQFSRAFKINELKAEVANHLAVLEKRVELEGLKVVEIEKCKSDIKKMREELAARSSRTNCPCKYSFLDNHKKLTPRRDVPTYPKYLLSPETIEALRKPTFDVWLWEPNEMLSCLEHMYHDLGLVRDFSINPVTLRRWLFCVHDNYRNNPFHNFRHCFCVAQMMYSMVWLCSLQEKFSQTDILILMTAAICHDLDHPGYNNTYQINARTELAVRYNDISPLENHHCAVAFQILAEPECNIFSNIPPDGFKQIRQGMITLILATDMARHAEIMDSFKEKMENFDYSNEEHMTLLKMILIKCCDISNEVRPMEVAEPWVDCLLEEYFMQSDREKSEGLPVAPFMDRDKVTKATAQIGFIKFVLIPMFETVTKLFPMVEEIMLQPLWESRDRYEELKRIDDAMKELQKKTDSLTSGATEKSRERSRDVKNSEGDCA
In a typical experiment the PDE9 inhibitory activity of the compounds of the present invention was determined in accordance with the following experimental method.
Human PDE9 (PDE9A2, GenBank Accession No. NM_001001567), full length with N-terminal GST tag, was purchased from BPS Bioscience. The fluorescence polarization assay for cyclic nucleotide phosphodiesterases was performed using an IMAP® FP kit supplied by Molecular Devices, Sunnyvale, CA (product #R8139). IMAP® technology has been applied previously to phosphodiesterase assays (Huang, W., et al., J. Biomol Screen, 2002, 7:215). Assays were performed at room temperature in 384-well microtiter plates with an incubation volume of 20.2 μL. Solutions of test compounds were prepared in DMSO and serially diluted with DMSO to yield 8 μL of each of 10 solutions differing by 3-fold in concentration, at 32 serial dilutions per plate. 100% inhibition is determined using a known PDE9 inhibitor, such as 1-(2-chlorophenyl)-6-[(2R)-3,3,3-trifluoro-2-methylpropyl]-1,5-dihydro-4H-pyrazolo[3,4-d]pyrimidine-4-one (BAY 73-6691) (Wunder et al, Mol. Pharmacol., 2005, 68 (6): 1775-81), (6-[(3S,4S)-4-methyl-1-(pyrimidin-2-ylmethyl) pyrrolidin-3-yl]-1-(tetrahydro-2H-pyran-4-yl)-1,5-dihydro-4H-pyrazolo[3,4-d]pyrimidin-4-one (PF-04447943) (Wager et al., ACS Chemical Neuroscience, 2010, 1:435-449). 0% of inhibition is determined by using DMSO (1% final concentrations). A Labcyte Echo 555 (Labcyte, Sunnyvale, CA) is used to dispense 200 nL from each well of the titration plate to the 384 well assay plate. Human PDE9A2 membrane preps were diluted to 1 ng/ml. […] PDE9 enzyme mix and compounds were mixed and incubated at room temperature for 30 min. Following which, FAMcGMP substrate was added, shaken and incubated for an additional 60 min at room temperature. The final concentration of human PDE9 membrane preparations were 0.5 ng/ml. The final concentration of FAM-cGMP was 50 nM. After the incubation period, the enzymatic reaction was stopped by addition of binding solution (IMAP-FP, Molecular Devices, comprised of 80% Solution A, 20% Solution B and a 1:600 dilution of binding reagent) to each well. The plates were shaken then incubated at room temperature for 1 h prior to determining the fluorescence polarization (mP) using a Perkin Elmer En Vision™ plate reader (Waltham, MA).
Fluorescence polarization (mP) was calculated from the parallel(S) and perpendicular (P) fluorescence of each sample well and the analogous values for the median control well, containing only substrate (So and Po), using the following equation: […]
Dose-inhibition profiles for each compound were characterized by fitting the mP data to a four-parameter equation given below. The apparent inhibition constant (KI), the maximum inhibition at the low plateau relative to “100% Inhibition Control” (Imax; e.g. 1=>same as this control), the minimum inhibition at the high plateau relative to the “0% Inhibition Control” (Imin, e.g. 0=>same as the no drug control) and the Hill slope (nH) are determined by a non-linear least squares fitting of the mP values as a function of dose of the compound using an in-house software based on the procedures described by Mosser et al., JALA, 2003, 8:54-63, using the following equation: […]
An apparent (Km) for FAM-labeled […] of 150 nM was determined in separate experiments through simultaneous variation of substrate and selected drug concentrations.
As for `CCC(c1ncc(F)cn1)N(C)c1nc2c(c(C#N)nn2C(C)C2CCOCC2)c(=O)[nH]1` (single isomer, unassigned) [Example 39, 6-[1-(5-fluoropyrimidin-2-yl)propyl-methyl-amino]-4-oxo-1-(1-tetrahydropyran-4-ylethyl)-5H-pyrazolo[3,4-d]pyrimidine-3-carbonitrile], the Ki amounted to 0.17 nM.

As to `CCC(c1ncc(F)cn1)N(C)c1nc2c(c(C#N)nn2C(C)C2CCOCC2)c(=O)[nH]1` (single isomer, unassigned) [Example 40, 6-[1-(5-fluoropyrimidin-2-yl)propyl-methyl-amino]-4-oxo-1-(1-tetrahydropyran-4-ylethyl)-5H-pyrazolo[3,4-d]pyrimidine-3-carbonitrile], the Ki came to 33.2 nM.

Regarding `C=CCCC(c1ncccn1)N(C)c1nc2c(c(C#N)nn2C(C)c2ccc(C(F)(F)F)nc2)c(=O)[nH]1` (single isomer, unassigned) [Example 41, 6-[methyl(1-pyrimidin-2-ylpent-4-enyl)amino]-4-oxo-1-[1-[6-(trifluoromethyl)-3-pyridyl]ethyl]-5H-pyrazolo[3,4-d]pyrimidine-3-carbonitrile], the Ki came out at 0.42 nM.

For `C=CCCC(c1ncccn1)N(C)c1nc2c(c(C#N)nn2C(C)c2ccc(C(F)(F)F)nc2)c(=O)[nH]1` (single isomer, unassigned) [Example 42, 6-[methyl(1-pyrimidin-2-ylpent-4-enyl)amino]-4-oxo-1-[1-[6-(trifluoromethyl)-3-pyridyl]ethyl]-5H-pyrazolo[3,4-d]pyrimidine-3-carbonitrile], the Ki is 13.2 nM.

As for `C=CCCC(c1ncccn1)N(C)c1nc2c(c(C#N)nn2C(C)c2ccc(C(F)(F)F)nc2)c(=O)[nH]1` (single isomer, unassigned) [Example 43, 6-[methyl(1-pyrimidin-2-ylpent-4-enyl)amino]-4-oxo-1-[1-[6-(trifluoromethyl)-3-pyridyl]ethyl]-5H-pyrazolo[3,4-d]pyrimidine-3-carbonitrile], the Ki is 38.8 nM.

Consider `C=CCCC(c1ncccn1)N(C)c1nc2c(c(C#N)nn2C(C)c2ccc(C(F)(F)F)nc2)c(=O)[nH]1` (single isomer, unassigned) [Example 44, 6-[methyl(1-pyrimidin-2-ylpent-4-enyl)amino]-4-oxo-1-[1-[6-(trifluoromethyl)-3-pyridyl]ethyl]-5H-pyrazolo[3,4-d]pyrimidine-3-carbonitrile], for which the Ki was determined as 19.6 nM.

Turning to `CC(c1ccc(C(F)(F)F)nc1)n1nc(C#N)c2c(=O)[nH]c(N3CCC3c3ncccn3)nc21` (single isomer, unassigned) [Example 45, 4-oxo-6-(2-pyrimidin-2-ylazetidin-1-yl)-1-[1-[6-(trifluoromethyl)-3-pyridyl]ethyl]-5H-pyrazolo[3,4-d]pyrimidine-3-carbonitrile], the Ki worked out at 0.23 nM.

On to `CC(c1ccc(C(F)(F)F)nc1)n1nc(C#N)c2c(=O)[nH]c(N3CCC3c3ncccn3)nc21` (single isomer, unassigned) [Example 46, 4-oxo-6-(2-pyrimidin-2-ylazetidin-1-yl)-1-[1-[6-(trifluoromethyl)-3-pyridyl]ethyl]-5H-pyrazolo[3,4-d]pyrimidine-3-carbonitrile], for which the Ki is 21.4 nM.

For `CC(c1ccc(C(F)(F)F)nc1)n1nc(C#N)c2c(=O)[nH]c(N3CCC3c3ncccn3)nc21` (single isomer, unassigned) [Example 47, 4-oxo-6-(2-pyrimidin-2-ylazetidin-1-yl)-1-[1-[6-(trifluoromethyl)-3-pyridyl]ethyl]-5H-pyrazolo[3,4-d]pyrimidine-3-carbonitrile], the Ki is 22.7 nM.

Consider `CC(c1ccc(C(F)(F)F)nc1)n1nc(C#N)c2c(=O)[nH]c(N3CCC3c3ncccn3)nc21` (single isomer, unassigned) [Example 48, 4-oxo-6-(2-pyrimidin-2-ylazetidin-1-yl)-1-[1-[6-(trifluoromethyl)-3-pyridyl]ethyl]-5H-pyrazolo[3,4-d]pyrimidine-3-carbonitrile], for which the Ki stood at 17.4 nM.

`CC(c1ccc(C(F)(F)F)nc1)n1nc(C#N)c2c(=O)[nH]c(N3CCC3c3ccc(F)cc3)nc21` (single isomer, unassigned) [Example 49, 6-[2-(4-fluorophenyl)azetidin-1-yl]-4-oxo-1-[1-[6-(trifluoromethyl)-3-pyridyl]ethyl]-5H-pyrazolo[3,4-d]pyrimidine-3-carbonitrile]: the Ki turned out to be 22.7 nM.

For `CC(c1ccc(C(F)(F)F)nc1)n1nc(C#N)c2c(=O)[nH]c(N3CCC3c3ccc(F)cc3)nc21` (single isomer, unassigned) [Example 50, 6-[2-(4-fluorophenyl)azetidin-1-yl]-4-oxo-1-[1-[6-(trifluoromethyl)-3-pyridyl]ethyl]-5H-pyrazolo[3,4-d]pyrimidine-3-carbonitrile], the Ki came to 0.6 nM.

With `CC(c1ccc(C(F)(F)F)nc1)n1nc(C#N)c2c(=O)[nH]c(N3CCC3c3ccc(F)cc3)nc21` (single isomer, unassigned) [Example 51, 6-[2-(4-fluorophenyl)azetidin-1-yl]-4-oxo-1-[1-[6-(trifluoromethyl)-3-pyridyl]ethyl]-5H-pyrazolo[3,4-d]pyrimidine-3-carbonitrile], the Ki stood at 7.41 nM.

Turning to `CC(c1ccc(C(F)(F)F)nc1)n1nc(C#N)c2c(=O)[nH]c(N3CCC3c3ccc(F)cc3)nc21` (single isomer, unassigned) [Example 52, 6-[2-(4-fluorophenyl)azetidin-1-yl]-4-oxo-1-[1-[6-(trifluoromethyl)-3-pyridyl]ethyl]-5H-pyrazolo[3,4-d]pyrimidine-3-carbonitrile], the Ki was found to be 6.7 nM.

As to `CC(c1ccc(C(F)(F)F)nc1)n1nc(C#N)c2c(=O)[nH]c(N3CCCC3c3ncccn3)nc21` (single isomer, unassigned) [Example 53, 4-oxo-6-(2-pyrimidin-2-ylpyrrolidin-1-yl)-1-[1-[6-(trifluoromethyl)-3-pyridyl]ethyl]-5H-pyrazolo[3,4-d]pyrimidine-3-carbonitrile], the Ki stood at 207 nM.

On to `CC(c1ccc(C(F)(F)F)nc1)n1nc(C#N)c2c(=O)[nH]c(N3CCCC3c3ncccn3)nc21` (single isomer, unassigned) [Example 54, 4-oxo-6-(2-pyrimidin-2-ylpyrrolidin-1-yl)-1-[1-[6-(trifluoromethyl)-3-pyridyl]ethyl]-5H-pyrazolo[3,4-d]pyrimidine-3-carbonitrile], for which the Ki was found to be 6.53 nM.

With `CC(c1ccc(C(F)(F)F)nc1)n1nc(C#N)c2c(=O)[nH]c(N3CCCC3c3ncccn3)nc21` (single isomer, unassigned) [Example 55, 4-oxo-6-(2-pyrimidin-2-ylpyrrolidin-1-yl)-1-[1-[6-(trifluoromethyl)-3-pyridyl]ethyl]-5H-pyrazolo[3,4-d]pyrimidine-3-carbonitrile], the Ki was 124 nM.

Turning to `CC(c1ccc(C(F)(F)F)nc1)n1nc(C#N)c2c(=O)[nH]c(N3CCCC3c3ncccn3)nc21` (single isomer, unassigned) [Example 56, 4-oxo-6-(2-pyrimidin-2-ylpyrrolidin-1-yl)-1-[1-[6-(trifluoromethyl)-3-pyridyl]ethyl]-5H-pyrazolo[3,4-d]pyrimidine-3-carbonitrile], the Ki is 289 nM.
